For series [1] the following is noted: pH 7 (No salt); cited from earlier work.
For series [2] the following is noted: 25° C., RP-HPLC, Ac-X-G-A-K-G-A-G-V-G L-amide; cited from earlier work.
For another series, the target named is T1, Poliovirus Receptor (Homo sapiens, UniProt P15151).
T1 sequence (P15151 21-417): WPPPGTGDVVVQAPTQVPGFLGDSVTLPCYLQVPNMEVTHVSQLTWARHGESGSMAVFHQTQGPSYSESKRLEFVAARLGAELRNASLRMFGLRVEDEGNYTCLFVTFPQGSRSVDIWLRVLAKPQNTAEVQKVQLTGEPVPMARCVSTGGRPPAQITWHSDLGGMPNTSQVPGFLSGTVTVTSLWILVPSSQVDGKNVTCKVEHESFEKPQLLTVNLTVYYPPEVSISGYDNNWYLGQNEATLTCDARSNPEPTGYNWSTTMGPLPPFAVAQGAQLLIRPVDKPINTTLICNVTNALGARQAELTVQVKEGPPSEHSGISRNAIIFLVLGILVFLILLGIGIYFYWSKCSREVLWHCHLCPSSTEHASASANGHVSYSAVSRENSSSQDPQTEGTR
As to conditions: cited from earlier work.

Series [3] can be described thus: In-vivo distribution assay (intrarectal, colon cryosections, epifluorescence). Also noted: species or system BALB/c female mice. The settings on record: peptide-coupled DiI/DiO lipid nanoparticle, 30 μg DNA intrarectally, colon after 4 hours, compared to base lipid nanoparticle. How it is done: Three separate lipid nanoparticle formulations were prepared, one coupled to SEQ ID NO: 29, another coupled to transactivator of transcription peptide (TAT; SEQ ID NO:37) and the last without any coupling, all carried plasmid DNA and included 0.5% mol DiI and DiO labeling. 30 μg of DNA encapsulated in the DiI/DiO lipid nanoparticle are dosed intrarectally in BALB/c female mice (Charles River Laboratory, MA) anesthetized under 1-3% isofluorane. After 4 hours, the mice are euthanized under 25% CO2 and the colon is removed and embedded in optimal cutting temperature (OCT) media. The OCT media sections are flash frozen at −80 degrees Celsius and intestinal sections are taken in a cryostat. Epifluorescence images are taken of crypts under 531 nm excitation with 593 nm emission and overlaid with brightfield illumination. FIGS. 32A-32B.

Results on twelve molecules are retold here after patent US20210177982A1, “MUCUS-PENETRATING PEPTIDES, DELIVERY VEHICLES AND METHODS OF THERAPY” (DNALite Therapeutics, Inc., priority 2018, published 2021).

As for `CC[C@H](C)[C@H](N)C(=O)O` [Ile], the “Fauchere Score” value in series [1] is 1.8. Further, in series [2], the “ΔtR(Gly), pH 2, 20 mM H3PO4” value is 21.3; the “ΔtR(Gly), pH 2, 20 mM TFA” value is 21.4; the “ΔtR(Gly), pH 5, 10 mM PO4 Buffer” value is 22.2; the “ΔtR(Gly), pH 7, 10 mM PO4 Buffer +50 mM NaCl” value is listed as 22.8. In series [2], the “ΔtR(Gly), pH 7, 10 mM PO4 Buffer +50 mM NaClO4” value is given as 23.0 and the “ΔtR(Gly), pH 7, 10 mM PO4 Buffer, No Salt” value (from here on “ΔtR(Gly) … No Salt”) is 22.4.
In the case of TVDNPASTTNKDKLFAV [SEQ ID NO. 28], the “interaction with the Poliovirus Receptor” value at Poliovirus Receptor is listed as “has been shown to interact with the Poliovirus Receptor”.
Take `CC(C)C[C@H](N)C(=O)O` [Leu]: in series [1], the “Fauchere Score” value was 1.7. Moreover, in series [2], the “ΔtR(Gly), pH 2, 20 mM H3PO4” value is recorded as 23.4; the “ΔtR(Gly), pH 2, 20 mM TFA” value is 23.3; the “ΔtR(Gly), pH 5, 10 mM PO4 Buffer” value is 24.1; the “ΔtR(Gly), pH 7, 10 mM PO4 Buffer +50 mM NaCl” value is recorded as 24.6. In series [2], the “ΔtR(Gly), pH 7, 10 mM PO4 Buffer +50 mM NaClO4” value is reported as 25.1 and the “ΔtR(Gly) … No Salt” value is on record as 24.2.
For `N=C(N)NCCC[C@H](N)C(=O)O` [Arg], the “Fauchere Score” value in series [1] was −1.010. In series [2], the “ΔtR(Gly), pH 2, 20 mM H3PO4” value was −5.0; the “ΔtR(Gly), pH 2, 20 mM TFA” value was 0.6; the “ΔtR(Gly), pH 5, 10 mM PO4 Buffer” value was −3.7; the “ΔtR(Gly), pH 7, 10 mM PO4 Buffer +50 mM NaCl” value was 4.1. Moreover, in series [2], the “ΔtR(Gly), pH 7, 10 mM PO4 Buffer +50 mM NaClO4” value is on record as 6.4 and the “ΔtR(Gly) … No Salt” value is reported as 3.9.
Regarding `N[C@@H](Cc1c[nH]cn1)C(=O)O` [His], in series [1], the “Fauchere Score” value was 0.130. In series [2], the “ΔtR(Gly), pH 2, 20 mM H3PO4” value was −7.0; the “ΔtR(Gly), pH 2, 20 mM TFA” value is reported as 0.0; the “ΔtR(Gly), pH 5, 10 mM PO4 Buffer” value is reported as −5.1; the “ΔtR(Gly), pH 7, 10 mM PO4 Buffer +50 mM NaCl” value is on record as 4.7. For the same molecule, in series [2], the “ΔtR(Gly), pH 7, 10 mM PO4 Buffer +50 mM NaClO4” value was 3.4 and the “ΔtR(Gly) … No Salt” value was 3.4.
Regarding `C[C@H](N)C(=O)O` [Ala], in series [1], the “Fauchere Score” value was 0.3. In series [2], the “ΔtR(Gly), pH 2, 20 mM H3PO4” value was 3.6; the “ΔtR(Gly), pH 2, 20 mM TFA” value is listed as 2.8; the “ΔtR(Gly), pH 5, 10 mM PO4 Buffer” value was 3.3; the “ΔtR(Gly), pH 7, 10 mM PO4 Buffer +50 mM NaCl” value is reported as 4.1. For the same molecule, in series [2], the “ΔtR(Gly), pH 7, 10 mM PO4 Buffer +50 mM NaClO4” value is on record as 3.4 and the “ΔtR(Gly) … No Salt” value is 3.9.
For the molecule `CC(C)[C@H](N)C(=O)O` [Val], the “Fauchere Score” value in series [1] is 1.220. In addition, in series [2], the “ΔtR(Gly), pH 2, 20 mM H3PO4” value is on record as 13.8; the “ΔtR(Gly), pH 2, 20 mM TFA” value was 13.4; the “ΔtR(Gly), pH 5, 10 mM PO4 Buffer” value is 14.0; the “ΔtR(Gly), pH 7, 10 mM PO4 Buffer +50 mM NaCl” value was 15.0. Besides, in series [2], the “ΔtR(Gly), pH 7, 10 mM PO4 Buffer +50 mM NaClO4” value was 14.6 and the “ΔtR(Gly) … No Salt” value is 14.4.
As for `N[C@@H](Cc1ccc(O)cc1)C(=O)O` [Tyr], the “Fauchere Score” value in series [1] is 0.960. For the same molecule, in series [2], the “ΔtR(Gly), pH 2, 20 mM H3PO4” value is listed as 15.4; the “ΔtR(Gly), pH 2, 20 mM TFA” value is on record as 14.7; the “ΔtR(Gly), pH 5, 10 mM PO4 Buffer” value is 15.2; the “ΔtR(Gly), pH 7, 10 mM PO4 Buffer +50 mM NaCl” value is reported as 16.0. Further, in series [2], the “ΔtR(Gly), pH 7, 10 mM PO4 Buffer +50 mM NaClO4” value is given as 15.1 and the “ΔtR(Gly) … No Salt” value was 15.4.
Consider `NC(=O)CC[C@H](N)C(=O)O` [Gln], for which the “Fauchere Score” value in series [1] is −0.220. In addition, in series [2], the “ΔtR(Gly), pH 2, 20 mM H3PO4” value is 0.5; the “ΔtR(Gly), pH 2, 20 mM TFA” value is reported as 0.6; the “ΔtR(Gly), pH 5, 10 mM PO4 Buffer” value was 0.6; the “ΔtR(Gly), pH 7, 10 mM PO4 Buffer +50 mM NaCl” value is listed as 1.6. For the same molecule, in series [2], the “ΔtR(Gly), pH 7, 10 mM PO4 Buffer +50 mM NaClO4” value is given as 0.0 and the “ΔtR(Gly) … No Salt” value is on record as 0.5.
As for `NC(=O)C[C@H](N)C(=O)O` [Asn], in series [1], the “Fauchere Score” value is −0.600. In addition, in series [2], the “ΔtR(Gly), pH 2, 20 mM H3PO4” value is on record as 0.0; the “ΔtR(Gly), pH 2, 20 mM TFA” value is reported as −0.6; the “ΔtR(Gly), pH 5, 10 mM PO4 Buffer” value is 0.0; the “ΔtR(Gly), pH 7, 10 mM PO4 Buffer +50 mM NaCl” value is reported as 1.0. In series [2], the “ΔtR(Gly), pH 7, 10 mM PO4 Buffer +50 mM NaClO4” value is given as 30.8 and the “ΔtR(Gly) … No Salt” value was 0.5.
Consider `C[C@@H](O)[C@H](N)C(=O)O` [Thr], for which the “Fauchere Score” value in series [1] is 0.260. In addition, in series [2], the “ΔtR(Gly), pH 2, 20 mM H3PO4” value is 2.8; the “ΔtR(Gly), pH 2, 20 mM TFA” value is given as 2.3; the “ΔtR(Gly), pH 5, 10 mM PO4 Buffer” value is listed as 2.8; the “ΔtR(Gly), pH 7, 10 mM PO4 Buffer +50 mM NaCl” value is recorded as 4.1. In addition, in series [2], the “ΔtR(Gly), pH 7, 10 mM PO4 Buffer +50 mM NaClO4” value was 2.5 and the “ΔtR(Gly) … No Salt” value was 3.9.
Regarding “GRKKRRQRRRPQ (Human immunodeficiency virus) [SEQ ID NO. 37]”, the “distribution of the particle at the surface of the intestinal epithelial cells” value in series [3] is given as “reduced the distribution of the particle at the surface of the intestinal epithelial cells”.
